# Values of other authors as cited in US7442558B2, “Phthalamide-lanthanide complexes for use as luminescent markers” (The Regents of the University of California, priority 1999, dated 2008).
# Values joined by “and” are separate entries in the source; they are usually repeats but may differ in a detail not shown here. Equal entries are not always repeated. Structures can show the parent of a compound that is named as a salt.
# Conditions: in 0.05 M H2SO4; reference standard; cited from earlier work
compound,measurement,value
C=C[C@H]1C[N@@]2CC[C@H]1C[C@H]2[C@H](O)c1ccnc2ccc(OC)cc12 [quinine sulfate],absolute quantum yield,0.54 and 0.5460
